Tested on: CARP-1, phospho-JNK1/2, phospho-H2AX
Assay: Western blot of CARP-1, phospho-JNK1/2, γH2AX in UOK 262
Assay type: cell-based, human
Details: 10 μM, UOK 262, WB
Protocol: Logarithmically growing cells were either untreated or treated with different agents for various time periods. The cells were lysed to prepare protein extracts. IP was carried out by incubating approximately 1 mg of the protein lysate with appropriate antibodies. The immunoprecipitates were then analyzed by SDS-PAGE, followed by WB with respective, interacting protein. For Gst-pulldown, Gst-H2AX or various His-TAT-HA-tagged CARP-1 peptides were generated in Escherichia coli (E. coli) BL21 cells essentially as described by us previously. Briefly, the competent E. coli BL-21 (DE3) pLysS cells were transformed separately with various recombinant pGEX-4T-1 or pTAT-HA constructs. The transformed cells were then subjected to selection by combined presence of ampicillin and chloramphenicol; various isolates for each transformation were obtained and bacterial lysates were characterized for expression of fusion peptides. Cells from each isolate were grown in 4 mL of LB medium containing ampicillin only until the optical density (OD)600 reached 0.4–0.8. […]
Here, we utilized human TNBC MDA-MB-468 and human cervical cancer HeLa cells to conduct an MTT-based dose-response analysis using Adriamycin and CFM compounds. […] The cell lysates from the control, untreated, and treated cells were analyzed by WB for expression of CARP-1, phospho-JNK1/2, phospho-H2AX, and poly ADP ribose polymerase (PARP) proteins. […]

| SMILES | expression of CARP-1, phospho-JNK1/2, phospho-H2AX |
| --- | --- |
| COc1cccc2c1C(=O)c1c(O)c3c(c(O)c1C2=O)C[C@@](O)(C(=O)CO)C[C@@H]3O[C@H]1C[C@H](N)[C@H](O)[C@H](C)O1 [Adriamycin, doxorubicin, reference compound] | stimulated expression of CARP-1, phospho-JNK1/2, and phospho-H2AX in a time-dependent manner |
| O=C1N(Cc2ccccc2Cl)c2ccccc2C12NN=C(c1cccc(Cl)c1)S2 (centres unmarked) [CFM-4.16] | stimulated expression of CARP-1, phospho-JNK1/2, and phospho-H2AX in a time-dependent manner |

Reference: paper PMC6406907, “A H2AX–CARP-1 Interaction Regulates Apoptosis Signaling Following DNA Damage” (Cancers, 2019)
